# According to ChEMBL document CHEMBL2364335, “Structure-activity relationship data for chemical series of achiral agonists of the ghrelin (growth hormone secretagogue) receptor (Supplementary Bioactivity Data for publication CHEMBL1140573)”:
# Molecular target: Growth hormone secretagogue receptor type 1 (Homo sapiens, UniProt Q92847)
# Assay: SUPPLEMENTARY: Agonist activity at GSHR by FLIPR assay. Same assay as CHEMBL941945
# Type: functional
# Chain of Growth hormone secretagogue receptor type 1 (Q92847 whole entry): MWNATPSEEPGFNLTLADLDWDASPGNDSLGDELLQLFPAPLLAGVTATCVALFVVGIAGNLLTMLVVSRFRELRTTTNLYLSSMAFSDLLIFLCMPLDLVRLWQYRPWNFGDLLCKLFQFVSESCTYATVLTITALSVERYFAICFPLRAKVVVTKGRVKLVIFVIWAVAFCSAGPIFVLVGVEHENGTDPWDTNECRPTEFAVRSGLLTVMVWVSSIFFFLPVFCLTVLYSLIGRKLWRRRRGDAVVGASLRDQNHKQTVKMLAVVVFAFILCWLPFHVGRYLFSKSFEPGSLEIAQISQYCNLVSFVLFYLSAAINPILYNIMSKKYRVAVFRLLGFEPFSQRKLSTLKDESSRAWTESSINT
row,Compound,EC50
1,COc1ccc(NS(=O)(=O)/C=C/c2ccccc2)cc1N1C[C@@H](C)N[C@@H](C)C1,15.8 nM
2,COc1ccc(NS(=O)(=O)c2cccc3cccnc23)cc1N1C[C@@H](C)N[C@@H](C)C1,398 nM
3,COc1ccc(NS(=O)(=O)c2ccc(-c3cc(C)cs3)s2)cc1N1C[C@@H](C)N[C@@H](C)C1,0.794 nM
4,COc1ccc(NS(=O)(=O)c2ccc(Cl)c(Cl)c2)cc1N1C[C@@H](C)N[C@@H](C)C1,63.1 nM
5,COc1ccc(NS(=O)(=O)c2ccc(-c3cccs3)c(F)c2)cc1N1C[C@@H](C)N[C@@H](C)C1,3.16 nM
6,COc1ccc(NS(=O)(=O)c2ccc(-c3ccoc3)s2)cc1N1C[C@@H](C)N[C@@H](C)C1,12.6 nM
7,COc1ccc(NS(=O)(=O)c2ccc(-c3cnco3)cc2)cc1N1C[C@@H](C)N[C@@H](C)C1,39.8 nM
8,C[C@@H]1CN(c2ccc(Cl)c(NS(=O)(=O)c3ccc(-c4ccccc4F)s3)c2)C[C@H](C)N1,10 nM
9,COc1ccc(NS(=O)(=O)c2ccc(Br)c(C)c2)cc1N1C[C@@H](C)N[C@@H](C)C1,39.8 nM
10,COc1ccc(NS(=O)(=O)c2cccc3ccccc23)cc1N1C[C@@H](C)N[C@@H](C)C1,31.6 nM
11,C[C@@H]1CN(c2ccc(F)c(NS(=O)(=O)c3ccc(-c4cccs4)cc3Cl)c2)C[C@H](C)N1,7.94 nM
12,COc1ccc(NS(=O)(=O)c2ccc(-c3cccc(F)c3F)cc2)cc1N1C[C@@H](C)N[C@@H](C)C1,31.6 nM
13,Cc1ccc(N2C[C@@H](C)N[C@@H](C)C2)cc1NS(=O)(=O)c1ccc(-c2cccs2)cc1,3.98 nM
14,COc1ccc(NS(=O)(=O)c2ccc3ccccc3c2)cc1N1C[C@@H](C)N[C@@H](C)C1,15.8 nM
15,COc1ccc(NS(=O)(=O)c2ccc(-c3ccsc3)cc2)cc1N1C[C@@H](C)N[C@@H](C)C1,2.51 nM
16,COc1ccc(NS(=O)(=O)c2ccc(-c3ccc(F)cc3)s2)cc1N1C[C@@H](C)N[C@@H](C)C1,100 nM
17,COc1ccc(NS(=O)(=O)c2ccc(-c3cccc(C)n3)cc2)cc1N1C[C@@H](C)N[C@@H](C)C1,15.8 nM
18,Cc1ccc(-c2ccc(S(=O)(=O)Nc3ccnc(N4C[C@@H](C)N[C@@H](C)C4)n3)cc2F)o1,31.6 nM
19,COc1ccc(NS(=O)(=O)c2ccc(-c3c(C)cccc3C)s2)cc1N1C[C@@H](C)N[C@@H](C)C1,25.1 nM
20,COc1ccc(NS(=O)(=O)c2ccc(-c3cccs3)s2)cc1N1C[C@@H](C)N[C@@H](C)C1,2 nM
21,Cc1ccc(-c2ccc(S(=O)(=O)Nc3cc(N4C[C@@H](C)N[C@@H](C)C4)ccc3O)cc2F)o1,3.16 nM

row,Compound,EC50
1,C[C@@H]1CN(c2ccc(F)c(NS(=O)(=O)c3ccc(-c4ccoc4)cc3Cl)c2)C[C@H](C)N1,20 nM
2,Cc1ccc(N2C[C@@H](C)N[C@@H](C)C2)cc1NS(=O)(=O)c1ccc2ccccc2c1,5.01 nM
3,COc1ccc(NS(=O)(=O)c2ccc(Br)cc2C)cc1N1C[C@@H](C)N[C@@H](C)C1,39.8 nM
4,COc1ccc(NS(=O)(=O)c2ccc(-c3ccc(C)s3)s2)cc1N1C[C@@H](C)N[C@@H](C)C1,1.58 nM
5,C[C@@H]1CN(c2ccc(F)c(NS(=O)(=O)c3ccc(-c4ccccc4)cc3)c2)C[C@H](C)N1,31.6 nM
6,COc1ccc(NS(=O)(=O)c2ccc(-c3cccs3)cc2)cc1N1C[C@@H](C)N[C@@H](C)C1,1 nM
7,C[C@@H]1CN(c2cccc(NS(=O)(=O)c3ccc(-c4ccc(Cl)s4)cc3)c2)C[C@H](C)N1,25.1 nM
8,COc1ccc(N2C[C@@H](C)N(C)[C@@H](C)C2)cc1NS(=O)(=O)c1ccc(-c2cccs2)cc1,12.6 nM
9,COc1cc(-c2cccs2)ccc1S(=O)(=O)Nc1cccc(N2C[C@@H](C)N[C@@H](C)C2)c1,20 nM
10,C[C@@H]1CN(c2cc(NS(=O)(=O)c3ccc(-c4cccs4)cc3)ccc2C#N)C[C@H](C)N1,100 nM
11,Cc1ccc(N2C[C@@H](C)N[C@@H](C)C2)cc1NS(=O)(=O)c1cccc2ccccc12,20 nM
12,C[C@@H]1CN(c2cccc(NS(=O)(=O)c3cccc4ccccc34)c2)C[C@H](C)N1,10 nM
13,COc1ccc(NS(=O)(=O)c2ccc(-c3ccccc3C)cc2)cc1N1C[C@@H](C)N[C@@H](C)C1,100 nM
14,COc1ccc(NS(=O)(=O)c2ccc(-c3cccc(C)c3)s2)cc1N1C[C@@H](C)N[C@@H](C)C1,3.98 nM
15,COc1ccc(NS(=O)(=O)c2ccc(-c3cnco3)s2)cc1N1C[C@@H](C)N[C@@H](C)C1,39.8 nM
16,Cc1csc(-c2ccc(S(=O)(=O)Nc3cc(N4C[C@@H](C)N[C@@H](C)C4)ccc3C)cc2)c1,1.26 nM
17,COc1ccc(NS(=O)(=O)c2ccc(-c3ccc(F)cc3)cc2)cc1N1C[C@@H](C)N[C@@H](C)C1,20 nM
18,COc1ccc(NS(=O)(=O)c2ccc(-c3ccsc3)s2)cc1N1C[C@@H](C)N[C@@H](C)C1,1.58 nM
19,COc1ccc(NS(=O)(=O)c2ccc(-c3ccccc3)s2)cc1N1C[C@@H](C)N[C@@H](C)C1,1 nM
20,C[C@@H]1CN(c2ccc(Cl)c(NS(=O)(=O)c3ccc(-c4ccco4)cc3)c2)C[C@H](C)N1,1.58 nM

# More lines, now with the values ahead:
row,EC50,Compound
1,5.01 nM,COc1ccc(N2C[C@@H](C)N[C@@H](C)C2)cc1NS(=O)(=O)c1ccc(-c2ccsc2)s1
2,25.1 nM,COc1ccc(N2C[C@@H](C)N[C@@H](C)C2)cc1NS(=O)(=O)c1ccc(-c2ccc(C)s2)s1
3,5.01 nM,COc1ccc(N2C[C@@H](C)N[C@@H](C)C2)cc1NS(=O)(=O)c1ccc(-c2ccsc2)cc1
4,5.01 nM,COc1ccc(N2C[C@@H](C)N[C@@H](C)C2)cc1NS(=O)(=O)c1ccc(-c2ccsc2)cc1C
5,10 nM,COc1ccc(N2C[C@@H](C)N[C@@H](C)C2)cc1NS(=O)(=O)c1cccc2cccc(Cl)c12
6,15.8 nM,COc1ccc(N2C[C@@H](C)N[C@@H](C)C2)cc1NS(=O)(=O)c1cccc(Cl)c1Cl
7,15.8 nM,COc1ccc(N2C[C@@H](C)N[C@@H](C)C2)cc1NS(=O)(=O)c1ccc(-c2ccco2)nc1
8,2 nM,COc1ccc(N2C[C@@H](C)N[C@@H](C)C2)cc1NS(=O)(=O)c1ccc(-c2csc(C)c2)c(F)c1
9,50.1 nM,COc1ccc(N2C[C@@H](C)N[C@@H](C)C2)cc1NS(=O)(=O)c1ccc(-c2cnco2)cc1
10,0.501 nM,COc1ccc(N2C[C@@H](C)N[C@@H](C)C2)cc1NS(=O)(=O)c1ccc(-c2ccco2)cc1Cl
11,2.51 nM,COc1ccc(N2C[C@@H](C)N[C@@H](C)C2)cc1NS(=O)(=O)c1ccc(-c2cccc(Cl)c2)cc1
12,6.31 nM,COc1ccc(N2C[C@@H](C)N[C@@H](C)C2)cc1NS(=O)(=O)c1ccc(-c2cccc(C)n2)cc1C
13,25.1 nM,COc1ccc(N2C[C@@H](C)N[C@@H](C)C2)cc1NS(=O)(=O)c1cc2cc(Cl)ccc2s1
14,3.16 nM,COc1ccc(N2C[C@@H](C)N[C@@H](C)C2)cc1NS(=O)(=O)c1ccc(-c2ccsc2)cc1Cl
15,100 nM,COc1ccc(Oc2cccc(S(=O)(=O)Nc3cc(N4C[C@@H](C)N[C@@H](C)C4)ccc3OC)c2)cc1
16,31.6 nM,COc1ccc(N2C[C@@H](C)N[C@@H](C)C2)cc1NS(=O)(=O)c1ccc(-c2ccc(C)cc2)s1
17,10 nM,COc1ccc(N2C[C@@H](C)N[C@@H](C)C2)cc1NS(=O)(=O)c1ccc(-c2cccc(C)n2)s1
18,25.1 nM,COc1ccc(N2C[C@@H](C)N[C@@H](C)C2)cc1NS(=O)(=O)c1ccc(-c2ccccc2C)s1
19,31.6 nM,COc1ccc(N2C[C@@H](C)N[C@@H](C)C2)cc1NS(=O)(=O)c1ccc(-c2cnccc2OC)s1
20,15.8 nM,COc1ccc(N2C[C@@H](C)N[C@@H](C)C2)cc1NS(=O)(=O)c1cc(F)c(-c2ccco2)cc1F
21,100 nM,COc1ccc(N2C[C@@H](C)N[C@@H](C)C2)cc1NS(=O)(=O)c1ccc(-c2ccc(F)cc2F)cc1
22,39.8 nM,COc1ccc(N2C[C@@H](C)N[C@@H](C)C2)cc1NS(=O)(=O)c1ccc(-c2csc(C)n2)s1

row,EC50,Compound
1,7.94 nM,COc1ccc(N2C[C@@H](C)N[C@@H](C)C2)cc1NS(=O)(=O)c1ccc(-c2ccoc2)cc1
2,3.98 nM,COc1ccc(N2C[C@@H](C)N[C@@H](C)C2)cc1NS(=O)(=O)c1ccc(-c2ccc(C)s2)cc1F
3,12.6 nM,COc1ccc(N2C[C@@H](C)N[C@@H](C)C2)cc1NS(=O)(=O)c1ccc(-c2ccc(Cl)s2)cc1
4,12.6 nM,COc1ccc(N2C[C@@H](C)N[C@@H](C)C2)cc1NS(=O)(=O)c1cc(C)c(-c2cccc(C)n2)s1
5,100 nM,COc1ccc(N2C[C@@H](C)N[C@@H](C)C2)cc1NS(=O)(=O)c1ccc(-c2cccnc2)s1
6,39.8 nM,COc1ccc(N2C[C@@H](C)N[C@@H](C)C2)cc1NS(=O)(=O)c1cccc(-c2ccoc2)c1
7,79.4 nM,COc1ccc(N2C[C@@H](C)N[C@@H](C)C2)cc1NS(=O)(=O)c1ccc2c(c1)OCCN2C
8,2.51 nM,COc1ccc(N2C[C@@H](C)N[C@@H](C)C2)cc1NS(=O)(=O)c1ccc(-c2ccccc2Cl)s1
9,3.98 nM,COc1ccc(N2C[C@@H](C)N[C@@H](C)C2)cc1NS(=O)(=O)c1ccc(-c2csc(C)c2)cc1
10,10 nM,COc1ccc(N2C[C@@H](C)N[C@@H](C)C2)cc1NS(=O)(=O)c1csc2ccccc12
11,7.94 nM,COc1ccc(N2C[C@@H](C)N[C@@H](C)C2)cc1NS(=O)(=O)c1ccc(-c2ccc(C)o2)nc1
12,1.58 nM,COc1ccc(N2C[C@@H](C)N[C@@H](C)C2)cc1NS(=O)(=O)c1ccc(-c2ccco2)cc1F
13,100 nM,COc1ccc(N2C[C@@H](C)N[C@@H](C)C2)cc1NS(=O)(=O)c1ccc(-c2cccnc2)cc1
14,31.6 nM,COc1ccc(N2C[C@@H](C)N[C@@H](C)C2)cc1NS(=O)(=O)c1sc2ccc(F)cc2c1C
15,0.316 nM,COc1ccc(N2C[C@@H](C)N[C@@H](C)C2)cc1NS(=O)(=O)c1ccc(-c2ccc(C)o2)cc1Cl
16,31.6 nM,COc1ccc(N2C[C@@H](C)N[C@@H](C)C2)cc1NS(=O)(=O)c1ccc(-c2cccc(F)c2)s1
17,158 nM,COc1ccc(N2C[C@@H](C)N[C@@H](C)C2)cc1NS(=O)(=O)c1cccc(Br)c1
18,31.6 nM,COc1ccc(N2C[C@@H](C)N[C@@H](C)C2)cc1NS(=O)(=O)c1ccc(-c2cnccn2)cc1
19,3.16 nM,COc1ccc(N2C[C@@H](C)N[C@@H](C)C2)cc1NS(=O)(=O)c1ccc(-c2ccc(C)o2)cn1
20,20 nM,COc1ccc(N2C[C@@H](C)N[C@@H](C)C2)cc1NS(=O)(=O)c1ccc(-c2cccn2C)cc1
21,10 nM,COc1ccc(N2C[C@@H](C)N[C@@H](C)C2)cc1NS(=O)(=O)c1ccc(-c2cccc(C)n2)cc1
